Test results published in ChEMBL document CHEMBL5463727, “Data for DCP probe SGK3-PROTAC1” (2023).
The source made the active and inactive calls. No cut-off for these calls is given here.

Assays:
[1] = target: Casein kinase I isoform gamma-2 (Homo sapiens) (UniProt P78368); experiment: % Activity remaining of CK1 gamma 2 in the Dundee kinase panel at 1.0 µM; settings: Compound concentration 1.0 uM
[2] = target: Tau-tubulin kinase 1 (Homo sapiens) (UniProt Q5TCY1); experiment: % Activity remaining of TTBK1 in the Dundee kinase panel at 1.0 µM; settings: Compound concentration 1.0 uM
Chain of Tau-tubulin kinase 1 (Homo sapiens) (Q5TCY1 whole entry): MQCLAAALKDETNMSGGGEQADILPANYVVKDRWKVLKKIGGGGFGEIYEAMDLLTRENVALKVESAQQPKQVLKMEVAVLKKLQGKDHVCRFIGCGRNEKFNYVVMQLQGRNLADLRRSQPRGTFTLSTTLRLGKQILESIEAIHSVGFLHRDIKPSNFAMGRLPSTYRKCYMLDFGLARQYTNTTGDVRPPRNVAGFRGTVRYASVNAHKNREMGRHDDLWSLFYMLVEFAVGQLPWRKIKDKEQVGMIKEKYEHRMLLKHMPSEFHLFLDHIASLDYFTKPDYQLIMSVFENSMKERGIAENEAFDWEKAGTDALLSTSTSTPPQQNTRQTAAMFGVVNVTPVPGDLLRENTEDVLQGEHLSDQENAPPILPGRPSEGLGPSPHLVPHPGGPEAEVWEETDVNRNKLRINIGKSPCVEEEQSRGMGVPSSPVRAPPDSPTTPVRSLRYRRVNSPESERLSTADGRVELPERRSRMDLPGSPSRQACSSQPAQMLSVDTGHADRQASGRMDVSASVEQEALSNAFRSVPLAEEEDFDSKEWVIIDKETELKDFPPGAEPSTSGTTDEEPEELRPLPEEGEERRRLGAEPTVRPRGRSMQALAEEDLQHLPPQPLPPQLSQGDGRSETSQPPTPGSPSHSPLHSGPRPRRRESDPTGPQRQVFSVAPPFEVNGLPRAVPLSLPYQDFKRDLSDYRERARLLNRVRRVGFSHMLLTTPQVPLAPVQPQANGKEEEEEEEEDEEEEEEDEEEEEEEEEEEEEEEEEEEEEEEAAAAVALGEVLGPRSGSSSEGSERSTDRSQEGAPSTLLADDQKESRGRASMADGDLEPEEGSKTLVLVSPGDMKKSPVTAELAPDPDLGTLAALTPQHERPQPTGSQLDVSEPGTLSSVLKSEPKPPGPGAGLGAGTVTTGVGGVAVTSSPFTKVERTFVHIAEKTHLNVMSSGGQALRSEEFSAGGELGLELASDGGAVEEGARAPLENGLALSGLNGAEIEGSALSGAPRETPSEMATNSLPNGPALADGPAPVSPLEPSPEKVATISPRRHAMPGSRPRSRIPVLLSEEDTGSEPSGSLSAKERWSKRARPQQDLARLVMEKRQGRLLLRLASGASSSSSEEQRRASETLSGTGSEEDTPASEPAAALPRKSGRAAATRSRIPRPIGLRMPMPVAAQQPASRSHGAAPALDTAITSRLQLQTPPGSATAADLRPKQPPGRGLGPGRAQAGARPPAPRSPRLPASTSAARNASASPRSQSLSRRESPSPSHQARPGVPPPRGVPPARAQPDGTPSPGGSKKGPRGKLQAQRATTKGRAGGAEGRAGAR

[3] = target: Serine/threonine-protein kinase Nek2 (Homo sapiens) (UniProt P51955); experiment: % Activity remaining of NEK2a in the Dundee kinase panel at 1.0 µM; settings: Compound concentration 1.0 uM
[4] = target: MAP kinase-activated protein kinase 2 (Homo sapiens) (UniProt P49137); experiment: % Activity remaining of MAPKAP-K2 in the Dundee kinase panel at 1.0 µM; settings: Compound concentration 1.0 uM
Chain of MAP kinase-activated protein kinase 2 (Homo sapiens) (P49137 whole entry, looked up): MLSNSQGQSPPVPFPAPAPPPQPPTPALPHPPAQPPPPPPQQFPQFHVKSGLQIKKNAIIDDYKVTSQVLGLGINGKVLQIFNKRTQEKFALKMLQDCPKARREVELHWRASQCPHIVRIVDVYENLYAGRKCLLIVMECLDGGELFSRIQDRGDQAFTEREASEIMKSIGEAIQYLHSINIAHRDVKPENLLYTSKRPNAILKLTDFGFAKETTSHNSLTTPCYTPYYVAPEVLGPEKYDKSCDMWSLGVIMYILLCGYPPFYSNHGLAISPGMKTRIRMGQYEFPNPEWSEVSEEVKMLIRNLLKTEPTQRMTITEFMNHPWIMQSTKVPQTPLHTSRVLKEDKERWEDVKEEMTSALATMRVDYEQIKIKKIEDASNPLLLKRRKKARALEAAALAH

[5] = target: Serine/threonine-protein kinase SIK3 (Homo sapiens) (UniProt Q9Y2K2); experiment: % Activity remaining of SIK3 in the Dundee kinase panel at 1.0 µM; settings: Compound concentration 1.0 uM
Chain of Serine/threonine-protein kinase SIK3 (Homo sapiens) (Q9Y2K2 whole entry, looked up, canonical isoform): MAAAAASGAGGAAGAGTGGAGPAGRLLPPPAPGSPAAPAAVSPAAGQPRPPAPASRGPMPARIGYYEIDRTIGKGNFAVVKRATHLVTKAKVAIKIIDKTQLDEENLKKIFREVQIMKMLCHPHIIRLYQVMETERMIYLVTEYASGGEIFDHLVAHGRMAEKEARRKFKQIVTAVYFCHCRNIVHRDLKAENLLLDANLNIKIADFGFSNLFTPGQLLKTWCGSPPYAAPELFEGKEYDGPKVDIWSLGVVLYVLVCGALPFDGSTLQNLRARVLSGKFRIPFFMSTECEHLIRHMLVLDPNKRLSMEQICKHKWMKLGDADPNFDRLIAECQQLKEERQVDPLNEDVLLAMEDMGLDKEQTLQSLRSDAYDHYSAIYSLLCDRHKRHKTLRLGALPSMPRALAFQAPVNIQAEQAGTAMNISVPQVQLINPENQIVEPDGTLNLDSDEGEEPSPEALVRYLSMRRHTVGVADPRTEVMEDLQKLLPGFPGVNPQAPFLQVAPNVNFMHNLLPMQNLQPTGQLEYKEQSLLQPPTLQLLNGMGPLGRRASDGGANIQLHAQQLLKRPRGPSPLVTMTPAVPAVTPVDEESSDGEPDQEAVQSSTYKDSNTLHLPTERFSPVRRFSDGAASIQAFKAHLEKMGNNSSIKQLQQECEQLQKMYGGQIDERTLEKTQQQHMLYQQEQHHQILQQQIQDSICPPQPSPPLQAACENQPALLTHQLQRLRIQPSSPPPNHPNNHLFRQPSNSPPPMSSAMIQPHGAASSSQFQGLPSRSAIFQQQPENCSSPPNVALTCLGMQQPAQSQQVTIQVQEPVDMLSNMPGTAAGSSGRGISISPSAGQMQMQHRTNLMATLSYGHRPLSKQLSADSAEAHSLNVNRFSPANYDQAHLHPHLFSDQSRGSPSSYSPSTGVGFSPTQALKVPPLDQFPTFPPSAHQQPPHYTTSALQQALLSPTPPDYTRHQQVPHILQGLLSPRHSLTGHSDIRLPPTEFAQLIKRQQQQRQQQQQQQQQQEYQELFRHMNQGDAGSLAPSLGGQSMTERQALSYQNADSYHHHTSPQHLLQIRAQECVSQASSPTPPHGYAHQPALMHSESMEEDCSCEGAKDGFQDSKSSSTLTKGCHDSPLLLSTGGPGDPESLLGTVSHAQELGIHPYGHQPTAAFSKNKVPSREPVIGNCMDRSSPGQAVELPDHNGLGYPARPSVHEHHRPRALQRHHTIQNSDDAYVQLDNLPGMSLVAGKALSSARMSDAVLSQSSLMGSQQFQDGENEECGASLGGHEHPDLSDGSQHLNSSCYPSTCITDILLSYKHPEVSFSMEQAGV

[6] = target: Phosphorylase b kinase regulatory subunit alpha, liver isoform (Homo sapiens) (UniProt P46019); experiment: % Activity remaining of PHK in the Dundee kinase panel at 1.0 µM; settings: Compound concentration 1.0 uM
[7] = target: Casein kinase II subunit alpha (Homo sapiens) (UniProt P68400); experiment: % Activity remaining of CK2 in the Dundee kinase panel at 1.0 µM; settings: Compound concentration 1.0 uM
[8] = target: Ribosomal protein S6 kinase alpha-5 (Homo sapiens) (UniProt O75582); experiment: % Activity remaining of MSK1 in the Dundee kinase panel at 1.0 µM; settings: Compound concentration 1.0 uM
[9] = target: Serine/threonine-protein kinase 16 (Homo sapiens) (UniProt O75716); experiment: % Activity remaining of MPSK1 in the Dundee kinase panel at 1.0 µM; settings: Compound concentration 1.0 uM
[10] = target: Insulin receptor-related protein (Homo sapiens) (UniProt P14616); experiment: % Activity remaining of IRR in the Dundee kinase panel at 1.0 µM; settings: Compound concentration 1.0 uM
[11] = target: Ribosomal protein S6 kinase alpha-3 (Homo sapiens) (UniProt P51812); experiment: % Activity remaining of RSK2 in the Dundee kinase panel at 1.0 µM; settings: Compound concentration 1.0 uM
[12] = target: Ephrin type-B receptor 4 (Homo sapiens) (UniProt P54760); experiment: % Activity remaining of EPH-B4 in the Dundee kinase panel at 1.0 µM; settings: Compound concentration 1.0 uM
[13] = target: Mitogen-activated protein kinase 9 (Homo sapiens) (UniProt P45984); experiment: % Activity remaining of JNK2 in the Dundee kinase panel at 1.0 µM; settings: Compound concentration 1.0 uM
[14] = target: Tyrosine-protein kinase Lck (Homo sapiens) (UniProt P06239); experiment: % Activity remaining of Lck in the Dundee kinase panel at 1.0 µM; settings: Compound concentration 1.0 uM
[15] = target: NUAK family SNF1-like kinase 1 (Homo sapiens) (UniProt O60285); experiment: % Activity remaining of NUAK1 in the Dundee kinase panel at 1.0 µM; settings: Compound concentration 1.0 uM
[16] = target: MAP kinase-activated protein kinase 5 (Homo sapiens) (UniProt Q8IW41); experiment: % Activity remaining of PRAK in the Dundee kinase panel at 1.0 µM; settings: Compound concentration 1.0 uM
[17] = target: Serine/threonine-protein kinase PAK 6 (Homo sapiens) (UniProt Q9NQU5); experiment: % Activity remaining of PAK6 in the Dundee kinase panel at 1.0 µM; settings: Compound concentration 1.0 uM
[18] = target: Serine/threonine-protein kinase BRSK1 (Homo sapiens) (UniProt Q8TDC3); experiment: % Activity remaining of BRSK1 in the Dundee kinase panel at 1.0 µM; settings: Compound concentration 1.0 uM
Chain of Serine/threonine-protein kinase BRSK1 (Homo sapiens) (Q8TDC3 whole entry): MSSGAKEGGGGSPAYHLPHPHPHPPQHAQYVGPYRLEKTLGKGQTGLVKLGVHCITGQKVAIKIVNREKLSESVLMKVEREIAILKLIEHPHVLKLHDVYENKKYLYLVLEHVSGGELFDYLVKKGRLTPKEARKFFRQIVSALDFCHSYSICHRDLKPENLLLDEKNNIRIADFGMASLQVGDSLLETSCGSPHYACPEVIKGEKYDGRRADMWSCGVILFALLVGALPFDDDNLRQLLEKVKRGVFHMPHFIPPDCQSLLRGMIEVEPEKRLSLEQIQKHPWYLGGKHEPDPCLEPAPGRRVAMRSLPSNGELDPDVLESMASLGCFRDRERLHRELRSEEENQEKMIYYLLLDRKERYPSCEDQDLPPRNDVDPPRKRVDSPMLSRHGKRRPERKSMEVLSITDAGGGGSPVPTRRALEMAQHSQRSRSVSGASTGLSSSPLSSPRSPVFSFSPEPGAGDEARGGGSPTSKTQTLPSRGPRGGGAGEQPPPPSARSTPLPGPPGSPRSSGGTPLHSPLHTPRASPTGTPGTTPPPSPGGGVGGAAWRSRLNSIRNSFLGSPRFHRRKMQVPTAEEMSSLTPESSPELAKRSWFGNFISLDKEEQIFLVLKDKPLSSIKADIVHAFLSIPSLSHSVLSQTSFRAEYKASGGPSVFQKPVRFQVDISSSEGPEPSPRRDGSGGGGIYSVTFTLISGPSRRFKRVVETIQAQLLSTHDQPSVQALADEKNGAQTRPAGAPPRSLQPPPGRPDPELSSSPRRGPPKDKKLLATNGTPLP

[19] = target: Protein kinase C zeta type (Homo sapiens) (UniProt Q05513); experiment: % Activity remaining of PKC zeta in the Dundee kinase panel at 1.0 µM; settings: Compound concentration 1.0 uM
[20] = target: Mitogen-activated protein kinase kinase kinase 5 (Homo sapiens) (UniProt Q99683); experiment: % Activity remaining of ASK1 in the Dundee kinase panel at 1.0 µM; settings: Compound concentration 1.0 uM
[21] = target: Serine/threonine-protein kinase MARK2 (Homo sapiens) (UniProt Q7KZI7); experiment: % Activity remaining of MARK2 in the Dundee kinase panel at 1.0 µM; settings: Compound concentration 1.0 uM
[22] = target: Serine/threonine-protein kinase pim-1 (Homo sapiens) (UniProt P11309); experiment: % Activity remaining of PIM1 in the Dundee kinase panel at 1.0 µM; settings: Compound concentration 1.0 uM
[23] = target: Mitogen-activated protein kinase 10 (Homo sapiens) (UniProt P53779); experiment: % Activity remaining of JNK3 in the Dundee kinase panel at 1.0 µM; settings: Compound concentration 1.0 uM
[24] = target: RAC-alpha serine/threonine-protein kinase (Homo sapiens) (UniProt P31749); experiment: % Activity remaining of PKB alpha in the Dundee kinase panel at 1.0 µM; settings: Compound concentration 1.0 uM
[25] = target: Serine/threonine-protein kinase 24 (Homo sapiens) (UniProt Q9Y6E0); experiment: % Activity remaining of MST3 in the Dundee kinase panel at 1.0 µM; settings: Compound concentration 1.0 uM
[26] = target: Ribosomal protein S6 kinase beta-1 (Homo sapiens, UniProt P23443); experiment: % Activity remaining of S6K1 in the Dundee kinase panel at 1.0 µM; settings: for % Activity remaining: Compound concentration 1.0 uM
[27] = target: Serine/threonine-protein kinase D1 (Homo sapiens) (UniProt Q15139); experiment: % Activity remaining of PKD1 in the Dundee kinase panel at 1.0 µM; settings: Compound concentration 1.0 uM
[28] = target: Calcium/calmodulin-dependent protein kinase type 1 (Homo sapiens) (UniProt Q14012); experiment: % Activity remaining of CAMK1 in the Dundee kinase panel at 1.0 µM; settings: Compound concentration 1.0 uM
Chain of Calcium/calmodulin-dependent protein kinase type 1 (Homo sapiens) (Q14012 whole entry, looked up): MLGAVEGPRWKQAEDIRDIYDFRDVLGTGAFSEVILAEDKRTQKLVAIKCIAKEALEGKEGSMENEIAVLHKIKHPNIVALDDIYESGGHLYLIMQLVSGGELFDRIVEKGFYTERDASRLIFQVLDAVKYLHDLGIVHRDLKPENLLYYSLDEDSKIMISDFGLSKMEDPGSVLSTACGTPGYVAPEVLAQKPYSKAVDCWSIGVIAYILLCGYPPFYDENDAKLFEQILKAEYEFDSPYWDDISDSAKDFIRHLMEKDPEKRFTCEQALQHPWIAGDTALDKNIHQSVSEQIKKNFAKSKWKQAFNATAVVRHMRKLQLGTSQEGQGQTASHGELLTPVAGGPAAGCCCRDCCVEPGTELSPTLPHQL

[29] = target: Inhibitor of nuclear factor kappa-B kinase subunit epsilon (Homo sapiens) (UniProt Q14164); experiment: % Activity remaining of IKK epsilon in the Dundee kinase panel at 1.0 µM; settings: Compound concentration 1.0 uM
Chain of Inhibitor of nuclear factor kappa-B kinase subunit epsilon (Homo sapiens) (Q14164 whole entry): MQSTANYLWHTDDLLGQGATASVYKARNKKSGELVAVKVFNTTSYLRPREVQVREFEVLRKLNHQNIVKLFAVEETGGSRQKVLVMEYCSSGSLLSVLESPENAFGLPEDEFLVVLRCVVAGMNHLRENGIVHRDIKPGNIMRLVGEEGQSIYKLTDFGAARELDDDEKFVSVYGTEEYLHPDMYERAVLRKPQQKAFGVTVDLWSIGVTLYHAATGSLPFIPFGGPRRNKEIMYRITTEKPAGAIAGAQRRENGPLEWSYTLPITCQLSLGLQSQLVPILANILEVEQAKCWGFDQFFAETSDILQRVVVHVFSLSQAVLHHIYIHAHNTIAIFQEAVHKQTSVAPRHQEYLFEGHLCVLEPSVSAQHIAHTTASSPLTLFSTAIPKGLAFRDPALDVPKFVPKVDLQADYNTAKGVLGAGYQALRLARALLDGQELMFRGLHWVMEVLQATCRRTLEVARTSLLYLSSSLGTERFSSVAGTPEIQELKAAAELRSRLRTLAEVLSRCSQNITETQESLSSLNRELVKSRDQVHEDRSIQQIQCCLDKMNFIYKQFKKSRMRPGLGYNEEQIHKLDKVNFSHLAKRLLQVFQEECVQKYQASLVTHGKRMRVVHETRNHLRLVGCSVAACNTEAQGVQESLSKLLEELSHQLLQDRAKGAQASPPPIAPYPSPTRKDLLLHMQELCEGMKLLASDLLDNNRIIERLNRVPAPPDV

[30] = target: Serine/threonine-protein kinase Sgk3 (Homo sapiens, UniProt Q96BR1); experiment: SGK3 radioactive filter binding assay using 33P ATP (Dundee kinase screen)
[31] = target: Serine/threonine-protein kinase 3 (Homo sapiens) (UniProt Q13188); experiment: % Activity remaining of MST2 in the Dundee kinase panel at 1.0 µM; settings: Compound concentration 1.0 uM
[32] = target: Serine/threonine-protein kinase 26 (Homo sapiens) (UniProt Q9P289); experiment: % Activity remaining of MST4 in the Dundee kinase panel at 1.0 µM; settings: Compound concentration 1.0 uM
[33] = target: Ephrin type-B receptor 2 (Homo sapiens) (UniProt P29323); experiment: % Activity remaining of EPH-B2 in the Dundee kinase panel at 1.0 µM; settings: Compound concentration 1.0 uM
[34] = target: Mitogen-activated protein kinase kinase kinase 1 (Homo sapiens) (UniProt Q13233); experiment: % Activity remaining of MEKK1 in the Dundee kinase panel at 1.0 µM; settings: Compound concentration 1.0 uM
[35] = target: Serine/threonine-protein kinase pim-3 (Homo sapiens) (UniProt Q86V86); experiment: % Activity remaining of PIM3 in the Dundee kinase panel at 1.0 µM; settings: Compound concentration 1.0 uM
[36] = target: Ephrin type-B receptor 1 (Homo sapiens) (UniProt P54762); experiment: % Activity remaining of EPH-B1 in the Dundee kinase panel at 1.0 µM; settings: Compound concentration 1.0 uM
[37] = target: Mitogen-activated protein kinase kinase kinase 11 (Homo sapiens) (UniProt Q16584); experiment: % Activity remaining of MLK3 in the Dundee kinase panel at 1.0 µM; settings: Compound concentration 1.0 uM
[38] = target: Calcium/calmodulin-dependent protein kinase kinase 2 (Homo sapiens) (UniProt Q96RR4); experiment: % Activity remaining of CAMKK beta in the Dundee kinase panel at 1.0 µM; settings: Compound concentration 1.0 uM
[39] = target: Angiopoietin-1 receptor (Homo sapiens) (UniProt Q02763); experiment: % Activity remaining of TIE2 in the Dundee kinase panel at 1.0 µM; settings: Compound concentration 1.0 uM

| % Activity remaining [1] | % Activity remaining [2] | % Activity remaining [3] | % Activity remaining [4] | % Activity remaining [5] | % Activity remaining [6] | % Activity remaining [7] | % Activity remaining [8] | % Activity remaining [9] | % Activity remaining [10] | % Activity remaining [11] | % Activity remaining [12] | % Activity remaining [13] | % Activity remaining [14] | % Activity remaining [15] | % Activity remaining [16] | % Activity remaining [17] | % Activity remaining [18] | % Activity remaining [19] | % Activity remaining [20] | Compound | also measured |
| --- | --- | --- | --- | --- | --- | --- | --- | --- | --- | --- | --- | --- | --- | --- | --- | --- | --- | --- | --- | --- | --- |
| 101% | 105% | 162% | 85.8% | 78.7% | 113% | 90.2% | 49.6% | 127% | 103% | 120% | 107% | 117% | 124% | 98% | 115% | 97.9% | 108% | 96.5% | 113% | Cc1ccc(F)c(S(=O)(=O)Nc2ccc(-c3nc(OC[C@H]4CN(CCCCCCOCCOCCOCC(=O)N[C@H](C(=O)N5C[C@H](O)C[C@H]5C(=O)NCc5ccc(-c6scnc6C)cc5)C(C)(C)C)CCO4)c4cn[nH]c4n3)cc2)c1 | % Activity remaining [21]: 102%; % Activity remaining [22]: 94.5%; % Activity remaining [23]: 92.1%; % Activity remaining [24]: 105%; % Activity remaining [25]: 102%; IC50 [26]: 1800 nM; % Activity remaining [26]: 19%; % Activity remaining [27]: 94%; % Activity remaining [28]: 86.3%; % Activity remaining [29]: 108%; IC50 [30]: 300 nM (active); % Activity remaining [31]: 112%; % Activity remaining [32]: 106%; % Activity remaining [33]: 93.9%; % Activity remaining [34]: 124%; % Activity remaining [35]: 88.1%; % Activity remaining [36]: 99.9%; % Activity remaining [37]: 70.5%; % Activity remaining [38]: 98.9%; % Activity remaining [39]: 63.8% |
| 106% | 113% | 139% | 91.7% | 117% | 122% | 96.4% | 56.5% | 139% | 89.9% | 109% | 108% | 109% | 116% | 90% | 119% | 99.5% | 106% | 110% | 102% | Cc1ccc(F)c(S(=O)(=O)Nc2ccc(-c3nc(OC[C@H]4CN(CCCCCCOCCOCCOCC(=O)N[C@H](C(=O)N5C[C@@H](O)C[C@H]5C(=O)NCc5ccc(-c6scnc6C)cc5)C(C)(C)C)CCO4)c4cn[nH]c4n3)cc2)c1 | % Activity remaining [21]: 112%; % Activity remaining [22]: 96.5%; % Activity remaining [23]: 82.5%; % Activity remaining [24]: 117%; % Activity remaining [25]: 113%; IC50 [26]: 1700 nM; % Activity remaining [26]: 20.2%; % Activity remaining [27]: 91.7%; % Activity remaining [28]: 105%; % Activity remaining [29]: 99%; IC50 [30]: 600 nM (not active); % Activity remaining [31]: 100%; % Activity remaining [32]: 99%; % Activity remaining [33]: 97.4%; % Activity remaining [34]: 128%; % Activity remaining [35]: 88.8%; % Activity remaining [36]: 108%; % Activity remaining [37]: 75.6%; % Activity remaining [38]: 108%; % Activity remaining [39]: 80.8% |
